BindingDB's records for doi:10.1002/cmdc.202100576 (Experimental Drug Development Centre, 2021)
Several values for one entry are separate records, joined by “and”; a condition that tells them apart may be missing. Equal entries are not always repeated.

target: Replicase polyprotein 1ab (Severe acute respiratory syndrome coronavirus, UniProt P0C6X7); assay: Various Assay

| SMILES | IC50 | Ki |
| --- | --- | --- |
| O=C[C@H](CC1CCNC1=O)NC(=O)[C@H](Cc1ccccc1)NC(=O)c1cc2cc(F)ccc2[nH]1 (some centres undefined) | 111 nM |  |
| COc1cccc2[nH]c(C(=O)N(C)[C@@H](CC(C)C)C(=O)N[C@@H](C[C@@H]3CCNC3=O)C(=O)CO)cc12 [WO2005113580-Ex-29] | 83 nM |  |
| COc1cccc2[nH]c(C(=O)N[C@@H](CC(C)C)C(=O)N[C@@H](C[C@@H]3CCNC3=O)C(=O)COC(=O)C3CC3)cc12 [WO2005113580-Ex-37] | 162 nM |  |
| COc1cccc2[nH]c(C(=O)N[C@@H](CC(C)C)C(=O)N[C@@H](C[C@@H]3CCNC3=O)C(C)=O)cc12 [WO2006061714, P38.5] | 2300 nM |  |
| CC(C)C[C@H](NC(=O)c1nc2ccccc2[nH]1)C(=O)N[C@H](C=O)C[C@@H]1CCNC1=O [WO2006061714-ID-09] | 30 nM |  |
| O=C(Nc1ccc(NC(=O)c2cc(B(O)O)cc([N+](=O)[O-])c2)cc1)c1cc(B(O)O)cc([N+](=O)[O-])c1 [acs.jmedchem.1c00409_ST.31] |  | 22 nM |
| O=C(Oc1ccc(OC(=O)c2cc(B(O)O)cc([N+](=O)[O-])c2)cc1)c1cc(B(O)O)cc([N+](=O)[O-])c1 [cmdc.202100576, 4b] |  | 6700 nM |
| Nc1cc(B(O)O)cc(C(=O)OCc2cccc(B(O)O)c2)c1 [cmdc.202100576, 4c] |  | 3500 nM |
| O=C(O)c1cc(O)cc(B(O)O)c1 [cmdc.202100576, 4d] |  | 3500 nM |
| O=C(Oc1c(Cl)cc(Cl)cc1[N+](=O)[O-])c1cc(B(O)O)cc([N+](=O)[O-])c1 [cmdc.202100576, 4e] |  | 6900 nM |
| CCOC(=O)/C=C/[C@@H](C[C@H]1CCNC1=O)NC(=O)[C@@H](CC(C)C)NC(=O)[C@H](NC(=O)OCc1ccccc1)C(C)OC(C)(C)C (some centres undefined) [cmdc.202100576, 5b] |  | 58 nM |
| CC(C)C[C@H](NC(=O)[C@@H](NC(=O)OCc1ccccc1)C(C)OC(C)(C)C)C(=O)N[C@H](/C=C/C(=O)OC1CC1)C[C@@H]1CCNC1=O (some centres undefined) [cmdc.202100576, 5e] |  | 99 nM |
| COC(=O)/C=C/[C@H](C[C@@H]1CCNC1=O)NC(=O)[C@H](CC(C)C)NC(=O)[C@@H](NC(=O)OCc1ccccc1)C(C)NC(=O)C(C)(C)C (some centres undefined) [cmdc.202100576, 5f] |  | 38 nM |
| O=C(Oc1ccc(S(=O)(=O)c2ccc(OC(=O)C(Cl)=C(Cl)Cl)cc2Cl)cc1)C(Cl)=C(Cl)Cl [cmdc.202100576, 7b] | 900 nM |  |
| O=C(Sc1nnc(C(F)(F)F)[nH]1)C1CCC(C#Cc2ccccc2)O1 (centres undefined) [cmdc.202100576, 7c] | 3000 nM |  |
| O=c1c(O[C@@H]2O[C@H](CO[C@@H]3OC[C@H](O)[C@H](O)[C@H]3O)[C@@H](O)[C@H](O)[C@H]2O)c(-c2ccc(O)c(O)c2)oc2cc(O)cc(O)c12 [cmdc.202100576, 12c] | 31600 nM |  |
| CC1CCN(C(=O)c2ccc3c(c2)C(=O)C(=O)N3Cc2ccc3ccccc3c2)CC1 [cmdc.202100576, 13b] | 19700 nM |  |
| O=C1C(=O)N(Cc2ccccc2)c2ccc(C(=O)N3CCCC3)cc21 [cmdc.202100576, 13c] | 22900 nM |  |
| CN1C(=O)C(=O)c2cc(C(=O)N3CCOCC3)ccc21 [cmdc.202100576, 13d] | 36400 nM |  |
| O=C1C(=O)N(Cc2ccc3ccccc3c2)c2ccc(C(=O)N3CCCC3)cc21 [cmdc.202100576, 13e] | 70300 nM |  |
| O=C1C(=O)N(Cc2ccc3ccccc3c2)c2ccc(C(=O)N3CCCCC3)cc21 [cmdc.202100576, 13f] | 87800 nM |  |
| CC(C)C[C@@H](NC(=O)OCc1ccccc1)C(=O)N[C@@H](C=O)CC1CCNC1=O (some centres undefined) [cmdc.202100576, 14b] | 3500 nM |  |
| CC(C)C[C@@H](NC(=O)OCc1ccccc1)C(=O)N[C@H](CC1CCNC1=O)C(=O)C(=O)NC(C)C (some centres undefined) [cmdc.202100576, 14d] | 4700 nM |  |
| CC(C)C[C@@H](NC(=O)[C@H](Cc1cccc2ccccc12)NC(=O)OCc1ccccc1)C(=O)N[C@@H](C=O)CC1CCNC1=O (some centres undefined) [cmdc.202100576, 14e] | 230 nM |  |

| SMILES | IC50 | Ki |
| --- | --- | --- |
| CC(C)C[C@@H](NC(=O)[C@H](Cc1cccc2ccccc12)NC(=O)OCc1ccccc1)C(=O)N[C@H](CC1CCNC1=O)C(=O)C(=O)NC(C)C (some centres undefined) [cmdc.202100576, 14f] | 810 nM |  |
| O=C1c2c(O)cc(O)cc2O[C@@H](c2ccc(O)c(O)c2)[C@@H]1O [cmdc.202100576, 15] | 73000 nM |  |
| CC(C)C[C@H]1C(=O)N[C@H](C=O)CCC(=O)NCCCn2cc(nn2)C[C@@H]1CC(=O)OCc1ccccc1 [cmdc.202100576, 16c] | 15500 nM |  |
| Cc1ccc(SSc2nccs2)cc1 [cmdc.202100576, 17b] | 1300 nM |  |
| CC(=O)Nc1cnc(SSc2ccccc2[N+](=O)[O-])s1 [cmdc.202100576, 17c] | 1900 nM |  |
| O=[N+]([O-])c1ccccc1SSc1nccs1 [cmdc.202100576, 17d] | 2000 nM |  |
| COC(=O)c1c[nH]c(SSc2ccccc2[N+](=O)[O-])n1 [cmdc.202100576, 17e] | 2000 nM |  |
| Fc1ccc(SSc2nccs2)cc1 [cmdc.202100576, 17f] | 2200 nM |  |
| O=C[C@H](CC1CCNC1=O)NC(=O)[C@H](Cc1ccccc1)NC(=O)c1cc2ccccc2[nH]1 (some centres undefined) [cmdc.202100576, 18b] | 30 nM |  |
| C=C(N[C@H](C=O)CC1CCNC1=O)[C@H](Cc1ccccc1)NC(=O)[C@@H](NC(=O)c1cncc(F)c1)C(C)C (some centres undefined) [cmdc.202100576, 18c] | 35 nM |  |
| CC(C)[C@H](NC(=O)c1cc2ccccc2[nH]1)C(=O)N[C@@H](Cc1ccccc1)C(=O)N[C@H](C=O)CC1CCNC1=O (some centres undefined) [cmdc.202100576, 18d] | 50 nM |  |
| O=C[C@H](CC1CCNC1=O)NC(=O)[C@H](Cc1ccccc1)NC(=O)c1ccc2c(c1)OCO2 (some centres undefined) [cmdc.202100576, 18e] | 100 nM |  |
| CC(C)C(=O)Nc1ccc(N(C(=O)Cn2nnc3ccccc32)[C@H](C(=O)NCc2ccccc2)c2ccc(Cl)c(F)c2)cc1 [cmdc.202100576, 19b] | 800 nM |  |
| CC(C)C(=O)Nc1ccc(N(C(=O)Cn2nnc3ccccc32)[C@H](C(=O)NCc2ccccc2)c2ccc(O)cc2)cc1 [cmdc.202100576, 19c] | 1100 nM |  |
| CC(C)C(=O)Nc1ccc(N(C(=O)Cn2nnc3ccccc32)[C@H](C(=O)NCc2ccccc2)c2cccc(F)c2)cc1 [cmdc.202100576, 19d] | 1600 nM |  |
| CC(C)(C)c1ccc(N(C(=O)c2c[nH]cn2)[C@H](C(=O)NC2CCCC2)c2cccnc2)cc1 [cmdc.202100576, 19e] | 1700 nM |  |
| O=C(Nc1ccc(N(C(=O)Cn2nnc3ccccc32)[C@H](C(=O)NCc2ccccc2)c2ccsc2)cc1)C1CC1 [cmdc.202100576, 19f] | 2000 nM |  |
| CC(C)(C)NC(=O)C(=O)[C@H](C[C@@H]1CCNC1=O)NC(=O)[C@H](CC1CCCCC1)NC(=O)[C@H](Cc1cccc2ccccc12)NC(=O)OCc1ccc(OCN2CCOCC2)cc1 [cmdc.202100576, 22b] | 6.6 nM |  |
| COC(C)[C@H](NC(=O)OCc1ccccc1)C(=O)N[C@@H](CC(C)C)C(=O)N[C@@H](C[C@@H]1CCNC1=O)C(=O)C(=O)NC(C)C (some centres undefined) [cmdc.202100576, 22c] | 6.8 nM |  |
| CC(C)C[C@H](NC(=O)[C@H](CN(C)C)NC(=O)OCc1ccccc1)C(=O)N[C@@H](C[C@@H]1CCNC1=O)C(=O)C(=O)NC(C)(C)C [cmdc.202100576, 22d] | 7 nM |  |
| CC(C)C[C@H](NC(=O)[C@H](CN1CCOCC1)NC(=O)OCc1ccccc1)C(=O)N[C@@H](C[C@@H]1CCNC1=O)C(=O)C(=O)NC(C)C [cmdc.202100576, 22e] | 7 nM |  |
| CC(C)C[C@H](NC(=O)[C@H](CN1CCC(F)CC1)NC(=O)OCc1ccccc1)C(=O)N[C@@H](C[C@@H]1CCNC1=O)C(=O)C(=O)NC(C)C [cmdc.202100576, 22f] | 7 nM |  |
| Cc1cc(C(=O)N[C@@H](C)C(=O)N[C@H](C(=O)N[C@@H](CC(C)C)C(=O)N[C@H](C=CC(=O)OCc2ccccc2)C[C@@H]2CCNC2=O)C(C)C)no1 [the N3 Compound] | 9000 nM |  |

target: Replicase polyprotein 1ab (Middle East respiratory syndrome-related coronavirus (isolate United Kingdom/H123990006/2012), UniProt K9N7C7); assay: Various Assay

| SMILES | IC50 |
| --- | --- |
| CC(C)C[C@H](NC(=O)OC1CCN(C(=O)OC(C)(C)C)CC1)C(=O)N[C@@H](C[C@@H]1CCNC1=O)C(O)S(=O)(=O)O (some centres undefined) [cmdc.202100576, 20b] | 300 nM and 600 nM |
| CC(C)C[C@H](NC(=O)OC1CCN(S(C)(=O)=O)CC1)C(=O)N[C@@H](C[C@@H]1CCNC1=O)C(O)S(=O)(=O)O (some centres undefined) [cmdc.202100576, 20c] | 500 nM |
| CC(C)C[C@H](NC(=O)OC1(Cc2ccccc2)CCN(C(=O)OC(C)(C)C)CC1)C(=O)N[C@@H](C[C@@H]1CCNC1=O)C(O)S(=O)(=O)O (some centres undefined) [cmdc.202100576, 20d] | 600 nM |
| CC(C)C[C@H](NC(=O)OCCc1cccc(Cl)c1)C(=O)N[C@@H](C[C@@H]1CCNC1=O)C(O)S(=O)(=O)O (some centres undefined) [cmdc.202100576, 20f] | 700 nM |
| O=C(NC1CCCCC1)C(=O)[C@H](C[C@@H]1CCCNC1=O)NC(=O)[C@H](CC1CCCCC1)NC(=O)c1cc2ccccc2o1 [cmdc.202100576, 23b] | < 1 nM |
| O=C(NCc1ccccc1)C(=O)[C@H](C[C@@H]1CCCNC1=O)NC(=O)[C@H](Cc1ccccc1)NC(=O)c1cc2ccccc2[nH]1 [cmdc.202100576, 23c] | < 1 nM |
| O=C(NCc1ccccc1)C(=O)[C@H](C[C@@H]1CCCNC1=O)NC(=O)[C@H](Cc1ccccc1)NC(=O)c1cnc2ccccc2n1 [cmdc.202100576, 23d] | 2 nM |
| O=C(NCc1ccccc1)C(=O)[C@H](C[C@@H]1CCCNC1=O)NC(=O)[C@H](CC1CCCCC1)NC(=O)c1cc2ccccc2[nH]1 [cmdc.202100576, 23e] | 2 nM |
| O=C(NCc1ccccc1)C(=O)[C@H](C[C@@H]1CCCNC1=O)NC(=O)[C@H](CC1CCCCC1)NC(=O)c1cnc2ccccc2n1 [cmdc.202100576, 23f] | 5 nM |

target: Replicase polyprotein 1ab (Severe acute respiratory syndrome coronavirus 2, UniProt P0DTD1); assay: Various Assay

| SMILES | IC50 |
| --- | --- |
| O=C[C@H](CC1CCNC1=O)NC(=O)[C@H](Cc1ccccc1)NC(=O)c1cc2ccccc2[nH]1 (some centres undefined) [cmdc.202100576, 18b] | 34 nM |
| CC(C)[C@H](NC(=O)c1cc2ccccc2[nH]1)C(=O)N[C@@H](Cc1ccccc1)C(=O)N[C@H](C=O)CC1CCNC1=O (some centres undefined) [cmdc.202100576, 18d] | 68 nM |
| O=C[C@H](CC1CCNC1=O)NC(=O)[C@H](Cc1ccccc1)NC(=O)c1ccc2c(c1)OCO2 (some centres undefined) [cmdc.202100576, 18e] | 78 nM |
